Experimental findings from PubChem BioAssay AID192 (DTP/NCI, 2004) are described below.

In the test the test system is BDF1 mice, B16 melanoma ip, median survival T/C. Nature of the test: NCI In Vivo Anticancer Drug Screen. Data for tumor model B16 Melanoma (intraperitoneal) in B6D2F1 (BDF1) mice. The note with it: endpoint: median survival time, higher = longer survival. The procedure, abridged:
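Survival or tumor size is measured after treatment of tumor-bearing mice and normalised to the vehicle-treated control group.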

[1] abbreviates: dose: 25.0 mg/kg/injection, schedule: Q01DX009 (ip), vehicle: saline with Tween-80.
The mark [2] stands for this setting: dose: 50.0 mg/kg/injection, schedule: Q01DX009 (ip), vehicle: saline with Tween-80.
[3] abbreviates: dose: 12.5 mg/kg/injection, schedule: Q01DX009 (ip), vehicle: Klucel (hydroxypropylcellulose) (HPC).
The mark [4] stands for this setting: dose: 25.0 mg/kg/injection, schedule: Q01DX009 (ip), vehicle: Klucel (hydroxypropylcellulose) (HPC).
[5] abbreviates: dose: 50.0 mg/kg/injection, schedule: Q01DX009 (ip), vehicle: Klucel (hydroxypropylcellulose) (HPC).
[6] abbreviates: dose: 100.0 mg/kg/injection, schedule: Q04DX003 (ip), vehicle: saline with Tween-80.
Setting [7] is: dose: 400.0 mg/kg/injection, schedule: Q04DX003 (ip), vehicle: saline with Tween-80.
Setting [8] is: dose: 12.5 mg/kg/injection, schedule: Q01DX009 (ip), vehicle: saline with Tween-80.
Where [9] appears, read: dose: 100.0 mg/kg/injection, schedule: Q01DX009 (ip), vehicle: Klucel (hydroxypropylcellulose) (HPC).
The mark [10] stands for this setting: dose: 200.0 mg/kg/injection, schedule: Q01DX009 (ip), vehicle: Klucel (hydroxypropylcellulose) (HPC).
Where [11] appears, read: dose: 400.0 mg/kg/injection, schedule: Q01DX009 (ip), vehicle: Klucel (hydroxypropylcellulose) (HPC).

Molecules are shown by their SMILES. “And” between values parts separate entries of the source, which are not always exact repeats. Identical values can stand only once. Inconclusive results and toxic doses are left out. Square brackets hold non-standard residues; d marks the D form. Peptide text beside a SMILES is read from it. ξ: configuration not given here. Ac5c = NC1(C(=O)O)CCCC1; ξS = NC(CO)C(=O)O

With `N=c1c2ncn(Cc3cccc(C(F)(F)F)c3)c2ncn1O`, the T/C by setting is: (dose: 0.09 mg/kg/injection, schedule: Q01DX009 (ip), vehicle: Klucel (hydroxypropylcellulose) (HPC)) 93 % of control; (dose: 0.19 mg/kg/injection, schedule: Q01DX009 (ip), vehicle: Klucel (hydroxypropylcellulose) (HPC)) 90 % of control; (dose: 0.25 mg/kg/injection, schedule: Q04DX003 (ip), vehicle: Klucel (hydroxypropylcellulose) (HPC)) 97 % of control; (dose: 0.39 mg/kg/injection, schedule: Q01DX009 (ip), vehicle: Klucel (hydroxypropylcellulose) (HPC)) 93 % of control; (dose: 0.5 mg/kg/injection, schedule: Q04DX003 (ip), vehicle: Klucel (hydroxypropylcellulose) (HPC)) 95 % of control; (dose: 0.78 mg/kg/injection, schedule: Q01DX009 (ip), vehicle: Klucel (hydroxypropylcellulose) (HPC)) 91 % of control. Moreover, the T/C is 92 % of control (dose: 1.0 mg/kg/injection, schedule: Q04DX003 (ip), vehicle: Klucel (hydroxypropylcellulose) (HPC)); 107 % of control (dose: 1.4 mg/kg/injection, schedule: Q04DX003 (ip), vehicle: Klucel (hydroxypropylcellulose) (HPC)); 88 % of control (dose: 1.56 mg/kg/injection, schedule: Q01DX009 (ip), vehicle: Klucel (hydroxypropylcellulose) (HPC)); 107 % of control (dose: 2.2 mg/kg/injection, schedule: Q04DX003 (ip), vehicle: Klucel (hydroxypropylcellulose) (HPC)); 95 % of control (dose: 3.3 mg/kg/injection, schedule: Q04DX003 (ip), vehicle: Klucel (hydroxypropylcellulose) (HPC)).

Consider `CCC1(C)c2cc(C)c(C(C)=O)cc2C(C)(C)C1C` (configuration not stated), for which the T/C runs as follows: under setting [1], 107 % of control; under setting [2], 99 % of control.

In the case of `CC(=O)[C@H]1CC[C@H]2[C@@H]3C[C@H](F)C4=CC(=O)CC[C@]4(C)[C@@]3(F)[C@@H](O)C[C@]12C`, the T/C under setting [3] was 95 % of control; the T/C under setting [4] is 97 % of control; the T/C under setting [5] was 104 % of control; the T/C under setting [6] is 102 % of control; the T/C (dose: 200.0 mg/kg/injection, schedule: Q04DX003 (ip), vehicle: saline with Tween-80) was 110 % of control; the T/C under setting [7] is 110 % of control.

With `O=C1NC2C(NC(=O)N2Cl)N1Cl` (configuration not stated), the T/C runs as follows: (dose: 3.13 mg/kg/injection, schedule: Q01DX009 (ip), vehicle: saline with Tween-80) 101 % of control; (dose: 6.25 mg/kg/injection, schedule: Q01DX009 (ip), vehicle: saline with Tween-80) 98 % of control; under setting [8], 90 % of control and 98 % of control; (dose: 12.5 mg/kg/injection, schedule: Q01DX009 (ip), vehicle: saline) 101 % of control; under setting [1], 86 % of control; (dose: 25.0 mg/kg/injection, schedule: Q01DX009 (ip), vehicle: saline) 94 % of control. For the same compound, where the note is “dose: 25.0 mg/kg/injection, schedule: Q04DX003 (ip), vehicle: saline with Tween-80”, the T/C is 105 % of control.

In the case of `Cc1ccc2c(c1)CN(Cc1ccccc1)CO2`, the T/C was 93 % of control under setting [9], 96 % of control under setting [10] and 96 % of control under setting [11].

Consider `COc1cc(NS(C)(=O)=O)ccc1Nc1c2ccccc2nc2c(C)cccc12`, for which the T/C runs as follows: (dose: 2.0 mg/kg/injection, schedule: Q01DX009 (ip), vehicle: saline) 151 % of control; (dose: 2.5 mg/kg/injection, schedule: Q01DX009 (ip), vehicle: other) 180 % of control; (dose: 4.0 mg/kg/injection, schedule: Q01DX009 (ip), vehicle: saline) 213 % of control; (dose: 5.0 mg/kg/injection, schedule: Q01DX009 (ip), vehicle: other) 190 % of control; (dose: 5.0 mg/kg/injection, schedule: Q01DX009 (ip), vehicle: saline with Tween-80) 167 % of control; (dose: 10.0 mg/kg/injection, schedule: Q01DX001 (ip), vehicle: saline sonified) 163 % of control. Besides, the T/C reads like this: (dose: 12.5 mg/kg/injection, schedule: Q04DX003 (ip), vehicle: Klucel (hydroxypropylcellulose) (HPC)) 160 % of control; (dose: 20.0 mg/kg/injection, schedule: Q01DX001 (ip), vehicle: saline sonified) 166 % of control; (dose: 25.0 mg/kg/injection, schedule: Q04DX003 (ip), vehicle: Klucel (hydroxypropylcellulose) (HPC)) 200 % of control; (dose: 60.0 mg/kg/injection, schedule: Q01DX001 (ip), vehicle: saline sonified) 183 % of control.

For `Cc1cc(C)c(-c2c(C)cc(C)c(N)c2C)c(C)c1N`, for the setting “dose: 75.0 mg/kg/injection, schedule: Q04DX003 (ip), vehicle: Klucel (hydroxypropylcellulose) (HPC)”, the T/C is 91 % of control.

Consider `NC(CO)C(=O)NC1(C(=O)O)CCCC1` (configuration not stated) (H-[ξS]-[Ac5c]-OH), for which the T/C is 123 % of control under setting [6]; 122 % of control (dose: 133.0 mg/kg/injection, schedule: Q04DX003 (ip), vehicle: saline with Tween-80); 117 % of control (dose: 300.0 mg/kg/injection, schedule: Q04DX003 (ip), vehicle: saline with Tween-80); 100 % of control under setting [7].

As for `CNC1=C(N2CC2)C(=O)C(NC)=C(N2CC2)C1=O`, the T/C reads like this: (dose: 0.01 mg/kg/injection, schedule: Q01DX009 (ip), vehicle: saline) 102 % of control; (dose: 0.1 mg/kg/injection, schedule: Q01DX009 (ip), vehicle: saline) 108 % of control; (dose: 0.2 mg/kg/injection, schedule: Q01DX009 (ip), vehicle: saline) 94 % of control.

Consider `O=c1[nH]c2ccccc2nc1CBr`, for which the T/C runs as follows: (dose: 0.38 mg/kg/injection, schedule: Q01DX009 (ip), vehicle: saline with Tween-80) 104 % of control; (dose: 0.75 mg/kg/injection, schedule: Q01DX009 (ip), vehicle: saline with Tween-80) 100 % of control; (dose: 1.5 mg/kg/injection, schedule: Q01DX009 (ip), vehicle: saline with Tween-80) 104 % of control; (dose: 3.0 mg/kg/injection, schedule: Q01DX009 (ip), vehicle: saline with Tween-80) 92 % of control.

For the compound `[CH3][Pb]([CH3])([CH3])[Cl]`, the T/C is 117 % of control (dose: 0.75 mg/kg/injection, schedule: Q01DX009 (ip), vehicle: saline) and 103 % of control (dose: 1.5 mg/kg/injection, schedule: Q01DX009 (ip), vehicle: saline).

Regarding `O=S(=O)(O)C(O)c1cccnc1` (configuration not stated), the T/C under setting [8] was 102 % of control, the T/C under setting [1] was 86 % of control and the T/C under setting [2] is 89 % of control.

Consider `CC1CC(NC(=S)S)CC(C)(C)C1` (configuration not stated), for which the T/C by setting is: (dose: 0.25 mg/kg/injection, schedule: Q01DX009 (ip), vehicle: Klucel (hydroxypropylcellulose) (HPC)) 96 % of control; (dose: 0.5 mg/kg/injection, schedule: Q01DX009 (ip), vehicle: Klucel (hydroxypropylcellulose) (HPC)) 96 % of control; (dose: 1.0 mg/kg/injection, schedule: Q01DX009 (ip), vehicle: Klucel (hydroxypropylcellulose) (HPC)) 100 % of control.

Regarding `CC(=O)Oc1cccc(C)c1`, the T/C (dose: 200.0 mg/kg/injection, schedule: Q01DX009 (ip), vehicle: saline with Tween-80) is 106 % of control.

Take `c1ccc2[nH]c(/N=N/c3nc4ccccc4[nH]3)nc2c1`: the T/C runs as follows: under setting [9], 102 % of control; under setting [10], 102 % of control; under setting [11], 91 % of control.

With `CC(=O)O[C@]1(C(C)=O)CC[C@H]2[C@@H]3C[C@H](C)C4=CC(=O)CC[C@]4(C)[C@H]3CC[C@@]21C`, the T/C under setting [3] is 120 % of control; the T/C under setting [4] was 117 % of control; the T/C under setting [5] was 100 % of control; the T/C under setting [9] is 96 % of control; the T/C under setting [10] is 89 % of control; the T/C under setting [11] was 96 % of control. Moreover, where the note is “dose: 800.0 mg/kg/injection, schedule: Q01DX009 (ip), vehicle: Klucel (hydroxypropylcellulose) (HPC)”, the T/C is 89 % of control.

For `COc1cc2cc[n+](C)c(Cc3ccccc3)c2cc1OC`, the T/C was 102 % of control (dose: 3.12 mg/kg/injection, schedule: Q01DX009 (ip), vehicle: Klucel (hydroxypropylcellulose) (HPC)); 102 % of control (dose: 6.25 mg/kg/injection, schedule: Q01DX009 (ip), vehicle: Klucel (hydroxypropylcellulose) (HPC)); 102 % of control under setting [3]; 104 % of control under setting [4].

For `O=C1c2ccccc2C(=O)C(Cl)C1Cl` (configuration not stated), the T/C (dose: 0.19 mg/kg/injection, schedule: Q01DX009 (ip), vehicle: saline with Tween-80) is 94 % of control; the T/C (dose: 0.39 mg/kg/injection, schedule: Q01DX009 (ip), vehicle: saline with Tween-80) was 94 % of control; the T/C (dose: 5.0 mg/kg/injection, schedule: Q01DX009 (ip), vehicle: saline) was 86 % of control.
